Assay results: publication PMC12136037, “Type II kinase inhibitors that target Parkinson’s disease–associated LRRK2” (Science Advances, 2025)

Tests used:
Experiment in all cases: DSF 100 kinase selectivity screen;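 also: compound tested at 20 µM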
Type in all cases: binding
[1] = target: T1, ~100 representative kinases (Homo sapiens, UniProt Q15418); conditions: Protein RPS6KA1; DSF; average of three replicates
T1 construct: Recombinant protein kinase domains with a concentration of 2 μM
Summary of the method: (§1)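 Each kinase domain, at 2 μM, is mixed with 20 μM test compound and SYPRO Orange in Hepes (20 mM, pH 7.5) with 500 mM NaCl. Temperature is then raised at 3°C/min and fluorescence-monitored unfolding yields the melting temperature change, ΔTm in degrees Celsius.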

[2] = target: T2, ~100 representative kinases (Homo sapiens, UniProt Q99640); conditions: protein PKMYT1; average of three replicates
T2 construct: Recombinant protein kinase domains with a concentration of 2 μM
T2 sequence (Q99640 1-499): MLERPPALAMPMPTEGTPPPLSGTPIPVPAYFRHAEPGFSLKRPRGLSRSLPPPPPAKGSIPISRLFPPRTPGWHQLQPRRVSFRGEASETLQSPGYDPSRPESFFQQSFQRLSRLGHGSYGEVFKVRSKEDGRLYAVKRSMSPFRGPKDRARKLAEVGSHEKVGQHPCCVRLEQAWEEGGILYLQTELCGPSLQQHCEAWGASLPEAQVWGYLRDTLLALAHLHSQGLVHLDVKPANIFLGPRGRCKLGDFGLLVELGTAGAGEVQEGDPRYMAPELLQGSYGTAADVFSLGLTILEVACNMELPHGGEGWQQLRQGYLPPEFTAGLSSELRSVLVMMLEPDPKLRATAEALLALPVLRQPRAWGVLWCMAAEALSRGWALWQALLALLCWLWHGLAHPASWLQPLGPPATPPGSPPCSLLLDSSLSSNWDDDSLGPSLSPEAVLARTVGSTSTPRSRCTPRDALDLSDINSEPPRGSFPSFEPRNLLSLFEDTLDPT
Summary of the method: as §1

[3] = target: T3, ~100 representative kinases (Homo sapiens, UniProt P16083); conditions: protein NQO2; average of three replicates
T3 construct: Recombinant protein kinase domains with a concentration of 2 μM
T3 sequence (P16083 1-231): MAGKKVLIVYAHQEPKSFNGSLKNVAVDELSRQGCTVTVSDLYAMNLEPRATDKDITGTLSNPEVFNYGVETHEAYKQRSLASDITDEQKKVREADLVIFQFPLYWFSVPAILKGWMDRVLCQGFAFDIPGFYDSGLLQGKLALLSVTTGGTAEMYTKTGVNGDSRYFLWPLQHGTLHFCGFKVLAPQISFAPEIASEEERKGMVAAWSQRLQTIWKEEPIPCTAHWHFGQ
Summary of the method: as §1

[4] = target: T4, ~100 representative kinases (Homo sapiens, UniProt P00519); conditions: Protein ABL1; average of three replicates
T4 construct: Recombinant protein kinase domains with a concentration of 2 μM
T4 sequence (P00519 whole entry, the tested form may be a part): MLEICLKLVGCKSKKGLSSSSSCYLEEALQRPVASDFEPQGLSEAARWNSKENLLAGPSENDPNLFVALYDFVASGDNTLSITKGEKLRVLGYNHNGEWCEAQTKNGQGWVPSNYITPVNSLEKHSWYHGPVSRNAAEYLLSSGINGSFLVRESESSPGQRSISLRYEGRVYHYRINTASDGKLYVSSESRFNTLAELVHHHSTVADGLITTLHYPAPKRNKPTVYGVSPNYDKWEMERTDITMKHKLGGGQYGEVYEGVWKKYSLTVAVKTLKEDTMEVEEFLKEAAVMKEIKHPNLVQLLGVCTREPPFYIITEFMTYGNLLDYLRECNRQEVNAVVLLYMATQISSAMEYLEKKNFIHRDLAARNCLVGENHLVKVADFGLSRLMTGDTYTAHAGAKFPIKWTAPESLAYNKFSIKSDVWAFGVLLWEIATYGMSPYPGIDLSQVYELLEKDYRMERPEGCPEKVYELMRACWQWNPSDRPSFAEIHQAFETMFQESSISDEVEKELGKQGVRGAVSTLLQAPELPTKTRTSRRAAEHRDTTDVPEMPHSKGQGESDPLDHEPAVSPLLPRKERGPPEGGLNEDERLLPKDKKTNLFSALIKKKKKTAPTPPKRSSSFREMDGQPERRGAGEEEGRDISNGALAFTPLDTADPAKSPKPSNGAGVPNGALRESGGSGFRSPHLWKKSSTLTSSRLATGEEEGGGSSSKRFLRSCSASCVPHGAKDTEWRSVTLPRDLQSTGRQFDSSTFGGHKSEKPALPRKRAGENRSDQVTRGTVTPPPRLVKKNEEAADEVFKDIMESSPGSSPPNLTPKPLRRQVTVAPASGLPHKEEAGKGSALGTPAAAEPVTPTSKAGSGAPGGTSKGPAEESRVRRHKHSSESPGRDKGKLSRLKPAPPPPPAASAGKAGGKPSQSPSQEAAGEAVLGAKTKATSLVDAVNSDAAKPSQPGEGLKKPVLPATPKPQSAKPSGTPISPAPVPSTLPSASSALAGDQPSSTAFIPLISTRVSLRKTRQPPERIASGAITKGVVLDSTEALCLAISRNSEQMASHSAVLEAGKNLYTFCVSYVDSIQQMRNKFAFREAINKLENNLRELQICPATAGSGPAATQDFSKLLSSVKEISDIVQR
Summary of the method: as §1

[5] = target: T5, ~100 representative kinases (Homo sapiens, UniProt P53355); conditions: Protein DAPK1; average of three replicates
T5 construct: Recombinant protein kinase domains with a concentration of 2 μM
T5 sequence (P53355 whole entry, the tested form may be a part): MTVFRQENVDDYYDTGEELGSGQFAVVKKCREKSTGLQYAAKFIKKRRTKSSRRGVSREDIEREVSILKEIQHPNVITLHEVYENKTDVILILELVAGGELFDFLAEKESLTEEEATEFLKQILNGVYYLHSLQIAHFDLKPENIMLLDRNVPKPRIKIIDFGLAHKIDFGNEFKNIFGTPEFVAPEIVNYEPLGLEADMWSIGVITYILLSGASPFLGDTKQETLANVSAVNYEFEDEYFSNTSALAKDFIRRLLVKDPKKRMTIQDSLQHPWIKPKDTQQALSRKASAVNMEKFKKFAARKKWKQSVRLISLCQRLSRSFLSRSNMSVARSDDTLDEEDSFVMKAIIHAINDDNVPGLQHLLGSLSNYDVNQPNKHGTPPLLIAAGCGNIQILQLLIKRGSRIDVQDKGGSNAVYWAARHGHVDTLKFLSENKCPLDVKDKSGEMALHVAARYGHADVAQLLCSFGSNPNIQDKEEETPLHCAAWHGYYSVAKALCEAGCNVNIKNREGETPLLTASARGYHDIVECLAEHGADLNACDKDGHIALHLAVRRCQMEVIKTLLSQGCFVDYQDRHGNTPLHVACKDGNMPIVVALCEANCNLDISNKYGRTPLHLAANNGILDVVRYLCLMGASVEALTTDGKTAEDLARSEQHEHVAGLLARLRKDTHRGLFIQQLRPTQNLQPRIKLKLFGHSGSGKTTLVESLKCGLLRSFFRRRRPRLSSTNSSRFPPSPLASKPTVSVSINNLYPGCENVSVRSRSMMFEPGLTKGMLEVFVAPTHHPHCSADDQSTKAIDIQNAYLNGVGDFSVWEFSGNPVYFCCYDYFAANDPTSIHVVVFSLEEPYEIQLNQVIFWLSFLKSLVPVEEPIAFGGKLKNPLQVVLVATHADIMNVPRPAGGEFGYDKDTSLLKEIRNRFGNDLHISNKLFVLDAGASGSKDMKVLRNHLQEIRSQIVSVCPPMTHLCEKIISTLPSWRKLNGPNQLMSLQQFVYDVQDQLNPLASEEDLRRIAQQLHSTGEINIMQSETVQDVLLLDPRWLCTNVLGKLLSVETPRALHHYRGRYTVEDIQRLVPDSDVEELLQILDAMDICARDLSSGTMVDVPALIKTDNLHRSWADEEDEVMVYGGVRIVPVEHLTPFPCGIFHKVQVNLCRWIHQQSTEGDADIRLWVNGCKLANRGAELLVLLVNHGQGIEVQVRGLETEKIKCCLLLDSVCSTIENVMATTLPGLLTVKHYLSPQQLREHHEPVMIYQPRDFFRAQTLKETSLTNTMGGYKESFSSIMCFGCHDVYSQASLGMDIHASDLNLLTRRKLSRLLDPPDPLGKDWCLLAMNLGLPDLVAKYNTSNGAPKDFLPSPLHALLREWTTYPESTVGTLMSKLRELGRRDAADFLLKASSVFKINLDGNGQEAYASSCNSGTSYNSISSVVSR
Summary of the method: as §1

[6] = target: T6, ~100 representative kinases (Homo sapiens, UniProt P49674); conditions: Protein CSNK1E; average of three replicates
T6 construct: Recombinant protein kinase domains with a concentration of 2 μM
Summary of the method: as §1

[7] = target: T7, ~100 representative kinases (Homo sapiens, UniProt Q9H2G2); conditions: Protein SLK; DSF; average of three replicates
T7 construct: Recombinant protein kinase domains with a concentration of 2 μM
Summary of the method: as §1

[8] = target: T8, ~100 representative kinases (Homo sapiens, UniProt Q13554); conditions: Protein CAMK2B; average of three replicates
T8 construct: Recombinant protein kinase domains with a concentration of 2 μM
T8 sequence (Q13554 whole entry, the tested form may be a part): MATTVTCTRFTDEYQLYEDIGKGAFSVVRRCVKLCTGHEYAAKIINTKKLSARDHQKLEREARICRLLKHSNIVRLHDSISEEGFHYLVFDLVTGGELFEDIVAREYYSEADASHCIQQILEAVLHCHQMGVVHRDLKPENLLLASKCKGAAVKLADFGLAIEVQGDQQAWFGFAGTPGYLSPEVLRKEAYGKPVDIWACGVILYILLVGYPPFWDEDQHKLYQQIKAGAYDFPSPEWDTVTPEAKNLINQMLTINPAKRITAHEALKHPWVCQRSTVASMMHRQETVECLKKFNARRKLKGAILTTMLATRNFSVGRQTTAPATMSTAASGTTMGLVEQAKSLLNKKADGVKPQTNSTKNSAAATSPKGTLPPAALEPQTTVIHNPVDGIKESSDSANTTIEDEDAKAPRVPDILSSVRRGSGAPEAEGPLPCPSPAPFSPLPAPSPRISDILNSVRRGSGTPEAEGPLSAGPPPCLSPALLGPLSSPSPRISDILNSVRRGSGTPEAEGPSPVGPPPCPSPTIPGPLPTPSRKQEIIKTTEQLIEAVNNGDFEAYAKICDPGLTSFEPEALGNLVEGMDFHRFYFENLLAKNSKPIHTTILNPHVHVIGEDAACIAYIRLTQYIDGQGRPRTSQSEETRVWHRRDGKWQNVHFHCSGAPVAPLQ
Summary of the method: as §1

[9] = target: T9, ~100 representative kinases (Homo sapiens, UniProt Q12866); conditions: protein MERTK; average of three replicates
T9 construct: Recombinant protein kinase domains with a concentration of 2 μM
T9 sequence (Q12866 21-999): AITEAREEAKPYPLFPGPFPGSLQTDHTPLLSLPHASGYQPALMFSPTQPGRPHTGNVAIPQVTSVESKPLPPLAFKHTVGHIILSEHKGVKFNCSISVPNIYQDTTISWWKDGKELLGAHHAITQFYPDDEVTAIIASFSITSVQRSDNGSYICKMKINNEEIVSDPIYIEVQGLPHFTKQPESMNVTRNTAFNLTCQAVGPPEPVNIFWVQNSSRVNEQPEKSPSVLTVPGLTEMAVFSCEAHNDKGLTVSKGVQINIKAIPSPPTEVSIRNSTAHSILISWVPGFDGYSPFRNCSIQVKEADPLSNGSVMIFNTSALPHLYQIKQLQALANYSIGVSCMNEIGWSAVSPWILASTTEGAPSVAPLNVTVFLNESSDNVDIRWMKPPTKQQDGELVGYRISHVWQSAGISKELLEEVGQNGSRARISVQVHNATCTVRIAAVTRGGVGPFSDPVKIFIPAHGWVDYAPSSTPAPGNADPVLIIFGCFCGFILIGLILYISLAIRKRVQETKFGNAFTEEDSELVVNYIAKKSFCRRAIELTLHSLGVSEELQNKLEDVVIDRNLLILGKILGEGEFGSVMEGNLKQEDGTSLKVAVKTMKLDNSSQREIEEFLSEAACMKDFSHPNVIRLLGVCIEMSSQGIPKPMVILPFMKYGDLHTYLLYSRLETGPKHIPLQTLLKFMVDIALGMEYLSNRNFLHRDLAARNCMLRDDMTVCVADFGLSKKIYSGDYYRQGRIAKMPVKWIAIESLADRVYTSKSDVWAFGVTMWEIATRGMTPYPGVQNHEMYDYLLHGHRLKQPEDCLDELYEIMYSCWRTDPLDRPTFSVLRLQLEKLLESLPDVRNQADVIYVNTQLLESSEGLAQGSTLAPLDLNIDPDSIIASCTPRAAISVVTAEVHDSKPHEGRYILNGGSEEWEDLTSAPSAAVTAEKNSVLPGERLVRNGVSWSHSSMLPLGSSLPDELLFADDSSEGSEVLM
Summary of the method: as §1

[10] = target: T10, ~100 representative kinases (Homo sapiens, UniProt Q2M2I8); conditions: Protein AAK1; average of three replicates
T10 construct: Recombinant protein kinase domains with a concentration of 2 μM
T10 sequence (Q2M2I8 whole entry, the tested form may be a part): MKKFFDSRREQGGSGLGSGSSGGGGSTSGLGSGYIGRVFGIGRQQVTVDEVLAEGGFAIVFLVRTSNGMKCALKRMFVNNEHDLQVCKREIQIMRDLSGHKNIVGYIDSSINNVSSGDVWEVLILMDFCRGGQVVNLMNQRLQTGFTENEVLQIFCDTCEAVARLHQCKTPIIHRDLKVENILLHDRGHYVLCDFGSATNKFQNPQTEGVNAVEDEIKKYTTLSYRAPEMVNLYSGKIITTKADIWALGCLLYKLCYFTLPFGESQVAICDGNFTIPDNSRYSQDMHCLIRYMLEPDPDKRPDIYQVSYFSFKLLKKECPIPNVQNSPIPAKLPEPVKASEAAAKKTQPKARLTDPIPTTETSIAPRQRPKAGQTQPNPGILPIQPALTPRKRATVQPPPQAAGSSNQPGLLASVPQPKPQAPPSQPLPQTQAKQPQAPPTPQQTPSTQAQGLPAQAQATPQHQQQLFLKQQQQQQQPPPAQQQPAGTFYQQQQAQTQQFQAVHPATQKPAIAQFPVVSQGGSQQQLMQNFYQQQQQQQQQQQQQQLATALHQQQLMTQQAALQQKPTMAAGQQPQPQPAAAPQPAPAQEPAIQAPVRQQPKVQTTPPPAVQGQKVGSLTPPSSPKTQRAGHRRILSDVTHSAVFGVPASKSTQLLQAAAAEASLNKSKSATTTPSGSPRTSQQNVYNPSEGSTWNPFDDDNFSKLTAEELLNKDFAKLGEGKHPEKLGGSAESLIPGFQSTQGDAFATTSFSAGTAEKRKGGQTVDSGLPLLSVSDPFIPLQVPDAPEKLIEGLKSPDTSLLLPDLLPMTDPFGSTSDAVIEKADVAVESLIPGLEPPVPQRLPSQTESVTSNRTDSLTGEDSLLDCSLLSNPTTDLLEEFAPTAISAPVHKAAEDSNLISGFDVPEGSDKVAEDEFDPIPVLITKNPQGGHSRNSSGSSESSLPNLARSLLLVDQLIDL
Summary of the method: as §1

T1 sequence (Q15418 whole entry, the tested form may be a part): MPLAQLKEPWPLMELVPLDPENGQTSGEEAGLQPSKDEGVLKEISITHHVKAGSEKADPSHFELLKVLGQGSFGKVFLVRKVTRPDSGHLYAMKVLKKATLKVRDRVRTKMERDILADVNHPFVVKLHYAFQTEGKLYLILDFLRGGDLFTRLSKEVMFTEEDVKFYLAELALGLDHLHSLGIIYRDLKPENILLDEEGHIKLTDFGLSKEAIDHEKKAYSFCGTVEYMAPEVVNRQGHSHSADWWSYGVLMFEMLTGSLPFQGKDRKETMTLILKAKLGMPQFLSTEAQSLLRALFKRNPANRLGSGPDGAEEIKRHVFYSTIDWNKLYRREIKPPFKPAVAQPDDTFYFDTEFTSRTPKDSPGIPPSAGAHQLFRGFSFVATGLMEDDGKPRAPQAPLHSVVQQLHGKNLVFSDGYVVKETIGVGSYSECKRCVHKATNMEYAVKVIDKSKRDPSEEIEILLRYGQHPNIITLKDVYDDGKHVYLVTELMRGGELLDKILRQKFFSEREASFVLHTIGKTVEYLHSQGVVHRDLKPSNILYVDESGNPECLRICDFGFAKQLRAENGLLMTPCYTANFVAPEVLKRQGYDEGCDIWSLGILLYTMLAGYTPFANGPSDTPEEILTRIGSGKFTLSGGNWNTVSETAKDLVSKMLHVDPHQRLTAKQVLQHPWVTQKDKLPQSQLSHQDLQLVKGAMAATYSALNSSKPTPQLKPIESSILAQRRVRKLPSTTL

Row | dTm [1] [K] | dTm [2] [K] | dTm [3] [K] | dTm [4] [K] | dTm [5] [K] | dTm [6] [K] | dTm [7] [K] | dTm [8] [K] | dTm [9] [K] | dTm [10] [K] | Compound
1 | 0.70 | -1.54 | 0.34 | 2.25 | -0.23 | 5.76 | 8.41 | 2.15 | 1.59 | 4.45 | O=C(Nc1cccc(-c2c[nH]c3ncnc(N4CCOCC4)c23)c1)C1(C(=O)Nc2ccc(F)c(Cl)c2)CC1 [Compound 18]
2 | 0.38 | 0.00857 | -0.41 | 1.22 | -0.77 | 5.09 | 7.02 | 1.54 | 1.34 | 3.45 | O=C(Nc1cccc(-c2c[nH]c3ncnc(N4CCOCC4)c23)c1)C1(C(=O)Nc2ccc(F)c(F)c2)CC1 [Compound 17]
3 | 0.26 | -0.61 | -0.18 | 1.83 | -1.32 | 6.33 | 8.05 | 2.00 | 2.86 | 3.23 | O=C(Nc1cccc(-c2c[nH]c3ncnc(N4CCOCC4)c23)c1)C1(C(=O)Nc2ccc(F)c(Br)c2)CC1 [Compound 19]
4 | 0.33 | 0.44 | -1.06 | 2.29 | 0.0134 | 6.52 | 8.94 | 1.78 | 2.15 | 5.13 | Cc1cc(NC(=O)C2(C(=O)Nc3cccc(-c4c[nH]c5ncnc(N6CCOCC6)c45)c3)CC2)ccc1F [Compound 20]
